Measured values: ChEMBL document CHEMBL1671626, “In vitro profiling of ceftaroline against a collection of recent bacterial clinical isolates from across the United States” (2008)

Experiments:
Format in all cases: functional
Enterococcus faecalis [1] = assay: Antibacterial activity against vancomycin-susceptible Enterococcus faecalis assessed as susceptible isolates by CLSI M7-A7 broth microdilution method
Staphylococcus aureus [2] = assay: Antibacterial activity against coagulase-negative and oxacillin-resistant Staphylococcus aureus assessed as susceptible isolates by CLSI M7-A7 broth microdilution method
Enterococcus faecium [3] = assay: Antibacterial activity against vancomycin-resistant Enterococcus faecium by CLSI M7-A7 broth microdilution method
Streptococcus agalactiae [4] = assay: Antibacterial activity against erythromycin-nonsusceptible Streptococcus agalactiae by CLSI M7-A7 broth microdilution method
Pasteurella multocida = assay: Antibacterial activity against Pasteurella multocida by CLSI M7-A7 broth microdilution method
Staphylococcus aureus [5] = assay: Antibacterial activity against methicillin-susceptible Staphylococcus aureus assessed as resistant isolates by CLSI M7-A7 broth microdilution method
Enterococcus faecalis [6] = assay: Antibacterial activity against vancomycin-susceptible Enterococcus faecalis assessed as resistant isolates by CLSI M7-A7 broth microdilution method
Staphylococcus aureus [7] = assay: Antibacterial activity against coagulase-negative and oxacillin-susceptible Staphylococcus aureus assessed as resistant isolates by CLSI M7-A7 broth microdilution method
Enterococcus faecalis [8] = assay: Antibacterial activity against vancomycin-resistant Enterococcus faecalis by CLSI M7-A7 broth microdilution method
Staphylococcus aureus [9] = assay: Antibacterial activity against methicillin-susceptible Staphylococcus aureus assessed as susceptible isolates by CLSI M7-A7 broth microdilution method
Enterococcus faecalis [10] = assay: Antibacterial activity against vancomycin-resistant Enterococcus faecalis assessed as resistant isolates by CLSI M7-A7 broth microdilution method
Enterococcus faecium [11] = assay: Antibacterial activity against vancomycin-resistant Enterococcus faecium assessed as resistant isolates by CLSI M7-A7 broth microdilution method
Streptococcus pyogenes [12] = assay: Antibacterial activity against erythromycin-susceptible Streptococcus pyogenes assessed as susceptible isolates by CLSI M7-A7 broth microdilution method
Moraxella catarrhalis = assay: Antibacterial activity against beta lactamase-positive Moraxella catarrhalis by CLSI M7-A7 broth microdilution method
Streptococcus viridans [13] = assay: Antibacterial activity against penicillin-susceptible Streptococcus viridans assessed as susceptible isolates by CLSI M7-A7 broth microdilution method
Streptococcus agalactiae [14] = assay: Antibacterial activity against erythromycin-susceptible Streptococcus agalactiae assessed as susceptible isolates by CLSI M7-A7 broth microdilution method
Staphylococcus aureus [15] = assay: Antibacterial activity against coagulase-negative and oxacillin-resistant Staphylococcus aureus assessed as resistant isolates by CLSI M7-A7 broth microdilution method
Streptococcus viridans [16] = assay: Antibacterial activity against penicillin-nonsusceptible Streptococcus viridans by CLSI M7-A7 broth microdilution method
Streptococcus viridans [17] = assay: Antibacterial activity against penicillin-nonsusceptible Streptococcus viridans assessed as susceptible isolates by CLSI M7-A7 broth microdilution method
Streptococcus agalactiae [18] = assay: Antibacterial activity against erythromycin-nonsusceptible Streptococcus agalactiae assessed as susceptible isolates by CLSI M7-A7 broth microdilution method
Staphylococcus aureus [19] = assay: Antibacterial activity against methicillin-resistant Staphylococcus aureus assessed as susceptible isolates by CLSI M7-A7 broth microdilution method
Enterococcus faecalis [20] = assay: Antibacterial activity against vancomycin-susceptible Enterococcus faecalis by CLSI M7-A7 broth microdilution method
Staphylococcus aureus [21] = assay: Antibacterial activity against methicillin-susceptible Staphylococcus aureus by CLSI M7-A7 broth microdilution method
Staphylococcus aureus [22] = assay: Antibacterial activity against coagulase-negative and oxacillin-resistant Staphylococcus aureus by CLSI M7-A7 broth microdilution method
Streptococcus viridans [23] = assay: Antibacterial activity against penicillin-nonsusceptible Streptococcus viridans assessed as resistant isolates by CLSI M7-A7 broth microdilution method
Staphylococcus aureus [24] = assay: Antibacterial activity against coagulase-negative and oxacillin-susceptible Staphylococcus aureus assessed as susceptible isolates by CLSI M7-A7 broth microdilution method
Streptococcus pyogenes [25] = assay: Antibacterial activity against erythromycin-nonsusceptible Streptococcus pyogenes assessed as susceptible isolates by CLSI M7-A7 broth microdilution method
Staphylococcus aureus [26] = assay: Antibacterial activity against methicillin-resistant Staphylococcus aureus assessed as resistant isolates by CLSI M7-A7 broth microdilution method
Streptococcus agalactiae [27] = assay: Antibacterial activity against erythromycin-susceptible Streptococcus agalactiae by CLSI M7-A7 broth microdilution method
Staphylococcus aureus [28] = assay: Antibacterial activity against methicillin-resistant Staphylococcus aureus by CLSI M7-A7 broth microdilution method
Streptococcus pyogenes [29] = assay: Antibacterial activity against erythromycin-susceptible Streptococcus pyogenes by CLSI M7-A7 broth microdilution method
Streptococcus pyogenes [30] = assay: Antibacterial activity against erythromycin-nonsusceptible Streptococcus pyogenes by CLSI M7-A7 broth microdilution method
Enterococcus faecium [31] = assay: Antibacterial activity against vancomycin-resistant Enterococcus faecium assessed as susceptible isolates by CLSI M7-A7 broth microdilution method
Streptococcus viridans [32] = assay: Antibacterial activity against penicillin-susceptible Streptococcus viridans by CLSI M7-A7 broth microdilution method
Staphylococcus aureus [33] = assay: Antibacterial activity against coagulase-negative and oxacillin-susceptible Staphylococcus aureus by CLSI M7-A7 broth microdilution method
Streptococcus pneumoniae [34] = assay: Antibacterial activity against penicillin-susceptible Streptococcus pneumoniae assessed as susceptible isolates by CLSI M7-A7 broth microdilution method
Streptococcus pneumoniae [35] = assay: Antibacterial activity against penicillin-resistant Streptococcus pneumoniae assessed as susceptible isolates by CLSI M7-A7 broth microdilution method
Enterococcus faecalis [36] = assay: Antibacterial activity against vancomycin-resistant Enterococcus faecalis assessed as susceptible isolates by CLSI M7-A7 broth microdilution method
Streptococcus pneumoniae [37] = assay: Antibacterial activity against penicillin-susceptible Streptococcus pneumoniae by CLSI M7-A7 broth microdilution method
Streptococcus pneumoniae [38] = assay: Antibacterial activity against penicillin-resistant Streptococcus pneumoniae by CLSI M7-A7 broth microdilution method

CC1(C)S[C@@H]2[C@H](NC(=O)Cc3ccccc3)C(=O)N2[C@H]1C(=O)O [PENICILLIN G]
67.7%: Activity (Staphylococcus aureus [7])
97.7%: Activity (Staphylococcus aureus [15])
≤ 0.12 µg/mL: MIC (Streptococcus agalactiae [4]) | MIC50 (Streptococcus agalactiae [4]) | MIC90 (Streptococcus agalactiae [4]) | MIC50 (Pasteurella multocida) | MIC (Streptococcus agalactiae [27]) | MIC50 (Streptococcus agalactiae [27]) | MIC90 (Streptococcus agalactiae [27]) | MIC (Streptococcus pyogenes [29]) | MIC50 (Streptococcus pyogenes [29]) | MIC90 (Streptococcus pyogenes [29]) | MIC (Streptococcus pyogenes [30]) | MIC50 (Streptococcus pyogenes [30]) | MIC90 (Streptococcus pyogenes [30]) | MIC (Streptococcus viridans [32]) | MIC50 (Streptococcus viridans [32]) | MIC90 (Streptococcus viridans [32])
16.7%: Activity (Staphylococcus aureus [9])
95.2%: Activity (Streptococcus agalactiae [18])
16 µg/mL: MIC90 (Moraxella catarrhalis)
8 µg/mL: MIC90 (Streptococcus viridans [16]) | MIC50 (Staphylococcus aureus [22])
0%: Activity (Enterococcus faecalis [6]) | Activity (Enterococcus faecalis [10]) | Activity (Streptococcus viridans [17]) | Activity (Enterococcus faecium [31])
0.5 µg/mL: MIC50 (Streptococcus viridans [16]) | MIC50 (Staphylococcus aureus [33])
32.3%: Activity (Staphylococcus aureus [24])
98.9%: Activity (Streptococcus pyogenes [12])
100%: Activity (Enterococcus faecalis [1]) | Activity (Enterococcus faecium [11]) | Activity (Streptococcus viridans [13]) | Activity (Streptococcus agalactiae [14]) | Activity (Streptococcus pyogenes [25])
83.3%: Activity (Staphylococcus aureus [5])
0.25 µg/mL: MIC90 (Pasteurella multocida)
> 16 µg/mL: MIC (Enterococcus faecium [3]) | MIC50 (Enterococcus faecium [3]) | MIC90 (Enterococcus faecium [3]) | MIC90 (Staphylococcus aureus [21]) | MIC50 (Staphylococcus aureus [28])
2.3%: Activity (Staphylococcus aureus [2])
4 µg/mL: MIC90 (Enterococcus faecalis [8]) | MIC50 (Moraxella catarrhalis) | MIC90 (Enterococcus faecalis [20]) | MIC50 (Staphylococcus aureus [21])
28.6%: Activity (Streptococcus viridans [23])
99.5%: Activity (Staphylococcus aureus [26])
2 µg/mL: MIC50 (Enterococcus faecalis [8]) | MIC50 (Enterococcus faecalis [20]) | MIC90 (Staphylococcus aureus [33])
0.5%: Activity (Staphylococcus aureus [19])

CN[C@H](CC(C)C)C(=O)N[C@H]1C(=O)N[C@@H](CC(N)=O)C(=O)N[C@H]2C(=O)N[C@H]3C(=O)N[C@H](C(=O)N[C@H](C(=O)O)c4cc(O)cc(O)c4-c4cc3ccc4O)[C@H](O)c3ccc(c(Cl)c3)Oc3cc2cc(c3O[C@@H]2O[C@H](CO)[C@@H](O)[C@H](O)[C@H]2O[C@H]2C[C@](C)(N)[C@H](O)[C@H](C)O2)Oc2ccc(cc2Cl)[C@H]1O [VANCOMYCIN]
0%: Activity (Staphylococcus aureus [5]) | Activity (Enterococcus faecalis [6]) | Activity (Staphylococcus aureus [7]) | Activity (Staphylococcus aureus [15]) | Activity (Enterococcus faecalis [36]) | Activity (Enterococcus faecium [31])
> 16 µg/mL: MIC (Enterococcus faecium [3]) | MIC50 (Enterococcus faecium [3]) | MIC90 (Enterococcus faecium [3]) | MIC (Enterococcus faecalis [8]) | MIC50 (Enterococcus faecalis [8]) | MIC90 (Enterococcus faecalis [8])
100%: Activity (Enterococcus faecalis [1]) | Activity (Streptococcus pneumoniae [34]) | Activity (Enterococcus faecalis [10]) | Activity (Enterococcus faecium [11]) | Activity (Streptococcus pyogenes [12]) | Activity (Streptococcus pneumoniae [35]) | Activity (Streptococcus viridans [13]) | Activity (Streptococcus agalactiae [14]) | Activity (Streptococcus agalactiae [18]) | Activity (Streptococcus pyogenes [25])
0.3%: Activity (Staphylococcus aureus [26])
0.25 µg/mL: MIC50 (Streptococcus pneumoniae [37]) | MIC50 (Streptococcus pneumoniae [38]) | MIC (Streptococcus pyogenes [29]) | MIC50 (Streptococcus pyogenes [29]) | MIC (Streptococcus pyogenes [30]) | MIC50 (Streptococcus pyogenes [30])
2 µg/mL: MIC90 (Enterococcus faecalis [20]) | MIC90 (Staphylococcus aureus [22]) | MIC90 (Staphylococcus aureus [33])
1 µg/mL: MIC90 (Streptococcus viridans [16]) | MIC50 (Enterococcus faecalis [20]) | MIC90 (Staphylococcus aureus [21]) | MIC50 (Staphylococcus aureus [22]) | MIC50 (Staphylococcus aureus [28]) | MIC90 (Staphylococcus aureus [28]) | MIC50 (Staphylococcus aureus [33])
92.9%: Activity (Streptococcus viridans [17])
0.5 µg/mL: MIC50 (Streptococcus agalactiae [4]) | MIC90 (Streptococcus agalactiae [4]) | MIC (Streptococcus viridans [16]) | MIC50 (Streptococcus viridans [16]) | MIC50 (Staphylococcus aureus [21]) | MIC90 (Streptococcus pneumoniae [37]) | MIC50 (Streptococcus agalactiae [27]) | MIC90 (Streptococcus agalactiae [27]) | MIC90 (Streptococcus pneumoniae [38]) | MIC90 (Streptococcus pyogenes [29]) | MIC90 (Streptococcus pyogenes [30]) | MIC50 (Streptococcus viridans [32]) | MIC90 (Streptococcus viridans [32])
